Test results as given in patent US20100113590A1, “ADAM INHIBITOR” (Shiseido Company, Ltd., priority 2007, published 2010).

Test system: ADAM
Experiment: Inhibition of PMA-induced TNF-α release from U937 cells (index of ADAM inhibition), hTNF-α ELISA
Assay type: cell-based, human
Conditions: for Inhibition rate (%): U937 cells, 30 min pretreatment, 10 nM PMA for 6 hours, released hTNF-α by ELISA; for suppressing effect on HB-EGF release: statement in words summarising the screening, suggests inhibition of ADAM activity
Description: For the ADAM inhibiting effect, the TNF-α which is cut out to be released from the membrane of the U937 cell derived from the human lymphoma through the action of ADAM was used as an index, and the inhibiting effect on the TNF-α release by the agents was assessed. A new ADAM inhibitor was explored by screening different compounds according to the present method.
The U937 cells derived from the human lymphoma were seeded to the 48-well plate adjusting the number of the cells to 1×10^5 cells/0.25 ml and cultured at 37° C. overnight. The medium which contained 5 μg/ml or 30 μg/ml of an ascorbic acid derivative was added and incubated at 37° C. for 30 min. to be pretreated. 10 nM PMA (phorbol ester: 12-O-tetradecanoylphorbol-acetate; Sigma P8139) was then added and cultured at 37° C. for 6 hours. After completion of the treatment, the supernatant of the culture was collected, centrifuged and the cell-free supernatant was cryopreserved at −20° C. The assay of the released hTNF-α was performed using the hTNF-α Duo-Set ELISA kit from R & D Ltd. Each supernatant of the culture was diluted 5-folds with the medium, then […] each was added to the 96-well plate and measured according to the protocol of R & D Ltd. The absorbance at 450-570 nm of each well was measured by the measurement kit and concentrations of the samples were obtained from the standard curve. The inhibition rates were calculated according to the following equation wherein A0 is the absorbance of 0% inhibiting control (the medium containing only PMA), A100 is the absorbance of 100% inhibiting control (only the medium) and AS is the absorbance of the sample.
The inhibition rate (%)=(A0−AS)/(A0−A100)×100

Compound | Inhibition rate (%) (5 μg/mL) | Inhibition rate (%) (30 μg/mL) | suppressing effect on HB-EGF release
CCCCCCCCCCCCOC1=C(O)[C@@H]([C@@H](O)CO)OC1=O [2-O-dodecyl ascorbic acid] | 18.25 | 60.07 | high suppressing effect
CCCCCCCCCCCCCCCCCCOC1=C(O)[C@@H]([C@@H](O)CO)OC1=O [2-O-octadecyl ascorbic acid] | 15.19 | 82.70 | high suppressing effect
